Five compounds from patent publication US10179913B2, “MicroRNA-328 anti-sense composition and therapeutic use” (KAOHSIUNG MEDICAL UNIVERSITY, priority 2015, dated 2019) can be followed below.

Entries after “also recorded” stand apart in the source; their conditions may differ. Marks after values point to notes of the source that are not given here. l = locked nucleic acid (LNA); d = 2'-deoxy (DNA)

The test system of series [1] is miR-328. Put plainly: In vitro inhibition of miR-328 expression by antisense oligonucleotides transfected into ARPE-19 RPE cells (qRT-PCR, normalized to U6). Format: cell-based, human. Particulars: for inhibitory effect on miR-328 expression: RPE cells (ARPE-19), Lipofectamine 2000 transfection, 24 hours; for inhibition of miR-328 expression in vitro (in words): RPE cells, 30, 50 and 100 nM. The method, then: Cell Culture, Treatments, and Transfection
An RPE cell line called “ARPE-19” was grown in Dulbecco's modified Eagle's medium (DMEM)/F12 medium. The cell line was grown with 1% penicillin/streptomycin and 10% heat-inactivated fetal bovine serum (FBS) at 37° C. in a humidified atmosphere of 95% air/[…] carbon dioxide (CO2). To conduct the transfection experiments, cells were seeded into a 12-well plate at a density of 1×10^5 cells/well. After achieving 70% confluence in a well, antisense oligonucleotides (concentrations of 30, 50 and 100 nM) were transfected with Lipofectamine 2000 (Invitrogen) according to the manufacturer's instructions. After 24 hours of incubation, cells were lysed for further studies.
Detect the Inhibition of miR-328 Expression by Antisense Oligonucleotides
Total RNA was extracted from cultured cells using Trizol according to the manufacturer's instructions. RNA purity was checked using A260/A280 readings. miR-328 was first reversed transcribed to miR-328 cDNA using the following procedure: 5 ng of RNA was reverse transcribed with miR-328 specific primer and MultiScribe reverse transcriptase kit (Applied Biosystems). To measure the miR-328 expression, quantitative real-time PCR was performed on an ABI 7500 real-time PCR machine (Applied Biosystems) with miR-328 specific probe according to manufacturer's instructions (Applied Biosystems). The inhibitory effect by antisense oligonucleotides was evaluated by measuring the level of miR-328 cDNA by quantitative real-time PCR. The expression level of miR-328 was normalized to that of a small non-coding nuclear RNA U6 as the internal control.
(In general: Real-time PCR tracks product formation cycle by cycle.)

Series [2] relates to myopia-induced C57BL/6J mice. Put plainly: Example 4: efficacy in myopia-induced mice, delta axial length. In kind it is in vivo. The note with it: for reduction of delta axial length compared to control group: 1 μM on day 30, 37 and 44, versus saline; for Delta axial length, mm mean (SD): right (myopia) minus left eye, 30 μL to right eye on day 30, 37 and 44, eyes collected day 51; for Delta axial length, mm mean (SD) / activity in treating myopia in mice (in words): 1 μM; for activity in treating myopia in mice (in words): decrease of average axial length. As to the method:
The 21 days old C57BL/6J mice were purchased from the National Laboratory Animal Center, Taiwan. All animal experiments were in compliance with the ARVO Statement for the Use of Animals in Ophthalmic and Vision Research. The procedure of myopia induction is described briefly as the following: Right eyes of the 23 days old mice were covered to induce myopia (i.e. nearsightedness) and the left eyes were uncovered. Then the right eyes of the myopia-induced mice were treated with 30 μL of saline (i.e. control group), DNA16mer, DNA17mer, LNA403, LNA404, or LNA405, at 1 μM on 30th, 37th and 44th day. Mice were sacrificed on 51th day and the eyes were collected. The isolated eyes were photographed under a dissection microscope and the axial lengths were measured using […] Myopia (nearsightedness) causes elongation of axial length, which is the major pathological change in myopia. The difference of axial length (i.e. delta axial length) between the covered right eye and the non-covered left eye of the same mouse indicates the severity of myopia. Statistical evaluation was done by using Mann-Whitney U test. Analysis with p-values<0.05 being considered significant.

In series [3] the test system is myopia-induced C57BL/6J mice. Put plainly: Example 6: confirmation of DNA 16mer by a CRO in myopia-induced mice. In kind it is in vivo. The text has this: The procedure of myopia induction is: The 21 days old C57BL/6J mice were purchased from the National Laboratory Animal Center, Taiwan. All animal experiments were in compliance with the ARVO Statement for the Use of Animals in Ophthalmic and Vision Research. The procedure of myopia induction is described briefly as the following: Right eyes of the 23 days old mice were covered for 4 weeks to induce myopia and the left eyes were uncovered. Then the right eyes of the myopia-induced mice were treated with […], of saline (i.e. negative control group), 1% atropine (i.e. positive control group), 10 nM, 100 nM, and 1 μM of DNA 16mer on 30th, 37th and 44th day. Mice were sacrificed on 51th day and the eyes were collected. The isolated eyes were photographed under a dissection microscope and the axial lengths were measured using imageJ and a proprietary software for automatic measure. Myopia (nearsightedness) causes elongation of axial length, which is the major pathological change in myopia. The difference of axial length (i.e. delta axial length) between the covered right eye and the non-covered left eye of the same mouse indicates the severity of myopia.

Series [4] has as its system myopia-induced C57BL/6J mice. Put plainly: Example 5: validation of DNA 16mer and LNA 403 versus atropine in myopia-induced mice. Particulars: for Mean of delta AXL: right eye covered 4 weeks, 30 μL on day 30, 37 and 44, day 51. In kind it is in vivo. As to the method:
The 21 days old C57BL/6J mice were purchased from the National Laboratory Animal Center, Taiwan. All animal experiments were in compliance with the ARVO Statement for the Use of Animals in Ophthalmic and Vision Research. The procedure of myopia induction is described briefly as the following: Right eyes of the 23 days old mice were covered for 4 weeks to induce myopia (i.e. nearsightedness) and the left eyes were uncovered. Then the right eyes of the myopia-induced mice were treated with 30 μL of saline (i.e. negative control group), 1% atropine (i.e. positive control group), DNA16mer or LNA403 at 1 μM on 30th, 37th and 44th day. Mice were sacrificed on 51th day and the eyes were collected. The isolated eyes were photographed under a dissection microscope and the axial lengths were measured using imageJ and a proprietary software for automatic measure. Myopia (nearsightedness) causes elongation of axial length, which is the major pathological change in myopia. The difference of axial length (i.e. delta axial length) between the covered right eye and the non-covered left eye of the same mouse indicates the severity of myopia. Statistical evaluation was done by using Mann-Whitney U test. Analysis with p-values <0.05 being considered significant.

“5′-+G*+G*+A*+A*G*G*G*C*A*G*A*G*A*G*G*+G*+C*+C*+A-3′ (antisense GGAAGGGCAGAGAGGGCCA; sugars from the 5' end l4 d11 l4, all phosphorothioate, methylation of C not given here) [LNA404, LNA-modified and PS bond-modified anti-sense miR-328 oligonucleotide, 19 mer]”: the “inhibitory effect on miR-328 expression” value in series [1] (30 nM) is listed as 98%; in series [1] (50 nM), 98%; in series [1] (100 nM), 99%. Besides, the “inhibition of miR-328 expression in vitro (in words)” value (“inhibition of miR-328 expression” below) in series [1] is reported as “inhibited”. For the same compound, in series [2], the “reduction of delta axial length compared to control group” value (shortened to “reduction of delta axial length”) came to 0.025 mm. Besides, the “Delta axial length, mm mean (SD)” value in series [2] was −0.007 (0.100) mm.
Regarding “5′-+G*+A*+A*+G*G*G*C*A*G*A*G*A*G*G*+G*+C*+C*+A-3′ (antisense GAAGGGCAGAGAGGGCCA; sugars from the 5' end l4 d10 l4, all phosphorothioate, methylation of C not given here) [LNA405, LNA-modified and PS bond-modified anti-sense miR-328 oligonucleotide, 18 mer]”, the results for the “inhibitory effect on miR-328 expression” value in series [1] (30 nM), in series [1] (50 nM) and in series [1] (100 nM) were 98%, 98% and 99%, respectively. Moreover, in series [1], the “inhibition of miR-328 expression” value was “inhibited”. In addition, the “reduction of delta axial length” value in series [2] is 0.035 mm. Further, in series [2], the “Delta axial length, mm mean (SD)” value was −0.017 (0.054) mm.
Regarding “5′-GGGCAGAGAGGGCCA-3′ (DNA, backbone not given here) [15mer, anti-sense miR-328 oligodeoxyribonucleotide]”, in series [1], the “inhibition of miR-328 expression” value was “did not show any activity; also recorded: no inhibitory effect”.
On to `CN1[C@@H]2CC[C@H]1C[C@@H](OC(=O)C(CO)c1ccccc1)C2` (stereo partly drawn) [Atropine, atropine, reference compound], for which the “Delta axial length Mean” value in series [3] (1% atropine) is −0.060. In series [3] (1% atropine to right (myopia) eye), the “right eye axial, mm Mean” value is reported as 3.049 mm. In addition, the “left eye axial, mm Mean” value in series [3] (1% atropine to right eye, left eye uncovered) is 3.108 mm. For the same compound, the “Mean of delta AXL” value in series [4] (1% atropine) is recorded as −0.037.
For the compound “5′-+C*+G*+G*+A*A*G*G*G*C*A*G*A*G*A*G*G*+G*+C*+C*+A-3′ (antisense CGGAAGGGCAGAGAGGGCCA; sugars from the 5' end l4 d12 l4, all phosphorothioate, methylation of C not given here) [LNA403, LNA-modified and PS bond-modified anti-sense miR-328 oligonucleotide, 20 mer]”, in series [1] (30 nM), the “inhibitory effect on miR-328 expression” value came to 97%. Moreover, in series [1] (50 nM), the “inhibitory effect on miR-328 expression” value came out at 97%. In addition, the “inhibitory effect on miR-328 expression” value in series [1] (100 nM) was 90%. The “inhibition of miR-328 expression” value in series [1] is “inhibited”. In series [2], the “reduction of delta axial length” value is 0.054 mm; the “activity in treating myopia in mice (in words)” value is listed as “effective in treating myopia in mice”; the “Delta axial length, mm mean (SD)” value is recorded as −0.036 (0.079)* mm. Besides, in series [2] (listed as 403), the “activity in treating myopia in mice (in words)” value is “exhibited an activity for treating myopia”. In addition, in series [4] (1 μM), the “efficacy in reducing elongation of eyeball compared with 1% atropine (in words)” value was “more effective than 1% atropine” and the “Mean of delta AXL” value is reported as −0.052.
